Tested on: 786-0 complex spheroid viability
Test: Anticancer human tumor 786-0 cell line growth inhibition;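 also: spheroids exposed to agents for seven days before readout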
Conditions: for IC50: curve of first compound; for viability, T/C: stronger effect = lower value
Excerpt: Multicellular complex tumor spheroid response to LSD1 Inhibitor Iadademstat in combination with a variety of drugs and investigational agents in selected tumor cell lines
The current study was undertaken to assess response to LSD1 inhibitors in combination with standard-of-care drugs and investigational agents in solid tumor complex spheroid models as well as in the K-562 leukemia. Complex spheroids include a stromal component modeled by human endothelial cells (HUVEC) and fibroblasts modeled by human mesenchymal stem cells (MSCs). The concentration ranges selected for each drug and investigational agent were based upon clinically achievable concentrations if the clinical Cmax of the agent was known.
Compounds. The drugs and investigational agents used in this study are listed on Table 1. All of the agents used, including staurosporine (NSC755774) and gemcitabine (NSC613327), were obtained from the Developmental Therapeutics Program, NCI. FDA-approved anticancer drugs are available from the NCI at http://dtp.nci.nih.gov/branches/dscb/oncology_drugset_explanation.html. Drugs and investigational agents were >95% pure by proton nuclear magnetic resonance (NMR) and liquid chromatography/mass spectrometry (LC/MS). Stock solutions were prepared at 400x in DMSO, stored at -70 degrees C, and diluted in fresh medium prior to their use. The final concentration of DMSO in cell culture wells never exceeded 0.25% (v/v). The FDA-approved anticancer drug set is available from the Developmental Therapeutics Program at https://dtp.cancer.gov/organization/dscb/obtaining/available_plates.htm. All drugs and investigational agents were tested over a range starting from a high concentration at or near the clinical Cmax and decreasing in half-log increments. If the clinical Cmax for an agent had not been determined, the highest concentration tested was 10 microM.
Cell Lines. The patient-derived cancer cell (PDC) lines: 292921-168-R-J2-PDC, K24384-001-R-PDC, and 521955-158-R2-J5-PDC pancreatic carcinomas, 556581-035-R-J1 ovarian carcinoma, 324938-238-R-J1-PDC, 855422-203-R-J1-PDC and 883617-216-R-J1-PDC urothelial bladder carcinomas, 743489-274-T-PDC renal cell carcinoma, 138582-R-J1 Merkel cell tumor, K60290-347-R-J1 and K57222-313-R-J1-PDC glioblastomas, 653999-131-R-J2-PDC, LG0703-F948-PDC, and 349418-098-R-PDC non-small cell lung carcinomas, 885512-296-R-J2-PDC, 171881-019-R-J1-PDC breast carcinomas and 186277-243-T-J2-PDC and 233499-124-R-J2-PDC colon carcinomas were obtained from the NCI Patient-Derived Models Repository (PDMR, https://pdmr.cancer.gov). The established cell lines NCI/ADR-RES (RRID:CVCL_14520 and OVCAR-5 (RRID:CVCL_1628) ovarian carcinomas, 786-O (RRID:CVCL_1051) and A498 (RRID:CVCL_A498) renal cell carcinoma, NCI-H211 (ATCC, cat. CRL-5824; RRID:CVCL_1529), NCI-H196 (ATCC, cat. CRL-5823, RRID:CVCL_1509), SW 1271 (ATCC, cat. CRL-2177, RRID:CVCL_1716) and NCI-H1876 (ATCC, cat. CRL-5902, RRID:CVCL_1503) small cell lung carcinomas, MDA-MB-231 (RRID:CVCL_0062) and MDA-MB-468 (RRID:CVCL_0419)breast carcinomas (10-12). Pooled donor human umbilical vein endothelial cells (HUVEC, Lonza, cat. CC-2519) and human mesenchymal stem cells (hMSC, Lonza, cat. PT-2501) were purchased from Lonza (Walkersville, MD).
Cell Culture. All cells were maintained in an incubator at 37 degrees C and 5% CO2 with 95% humidity. The PDC lines were cultured according to standard operating procedures established by the NCI PDMR (https://pdmr.cancer.gov). Briefly all PDCs were thawed and cultured in Matrigel-coated flasks prepared with a working solution of 1X Ham's F-12 nutrient mix, without supplementation (Invitrogen, Waltham, MA, cat. 11765054), 100 U/mL penicillin-streptomycin (Invitrogen, cat. 15140122), and 2.5% Matrigel (Corning Inc., Corning, NY, cat. 354248) for the first three passages. […]

## O=C(C=Cc1cccc(S(=O)(=O)Nc2ccccc2)c1)NO + NC1CC1c1ccc(-c2cccc(O)c2)cc1
Second compound 0.1 µM
  IC50: 1300 nM
Second compound 0.316 µM
  IC50: 1300 nM
Second compound 1 µM
  IC50: 1250 nM
Second compound 3.16 µM
  IC50: 1110 nM
Second compound 10 µM
  IC50: 840 nM
Second compound 0.1 µM, first compound 0.00949 µM
  viability, T/C: 111%
Second compound 0.1 µM, first compound 0.03 µM
  viability, T/C: 107%
Second compound 0.1 µM, first compound 0.0949 µM
  viability, T/C: 111%
Second compound 0.1 µM, first compound 0.3 µM
  viability, T/C: 97%
Second compound 0.1 µM, first compound 0.949 µM
  viability, T/C: 66.1%
Second compound 0.1 µM, first compound 3 µM
  viability, T/C: 8.04%
Second compound 0.316 µM, first compound 0.00949 µM
  viability, T/C: 107%
Second compound 0.316 µM, first compound 0.03 µM
  viability, T/C: 107%
Second compound 0.316 µM, first compound 0.0949 µM
  viability, T/C: 109%
Second compound 0.316 µM, first compound 0.3 µM
  viability, T/C: 96.1%
Second compound 0.316 µM, first compound 0.949 µM
  viability, T/C: 66.3%
Second compound 0.316 µM, first compound 3 µM
  viability, T/C: 7.18%
Second compound 1 µM, first compound 0.00949 µM
  viability, T/C: 106%
Second compound 1 µM, first compound 0.03 µM
  viability, T/C: 110%
Second compound 1 µM, first compound 0.0949 µM
  viability, T/C: 110%
Second compound 1 µM, first compound 0.3 µM
  viability, T/C: 92.5%
Second compound 1 µM, first compound 0.949 µM
  viability, T/C: 63.9%
Second compound 1 µM, first compound 3 µM
  viability, T/C: 7.4%
Second compound 3.16 µM, first compound 0.00949 µM
  viability, T/C: 98.5%
Second compound 3.16 µM, first compound 0.03 µM
  viability, T/C: 99.2%
Second compound 3.16 µM, first compound 0.0949 µM
  viability, T/C: 110%
Second compound 3.16 µM, first compound 0.3 µM
  viability, T/C: 90.7%
Second compound 3.16 µM, first compound 0.949 µM
  viability, T/C: 57.4%
Second compound 3.16 µM, first compound 3 µM
  viability, T/C: 4.98%
Second compound 10 µM, first compound 0.00949 µM
  viability, T/C: 92.5%
Second compound 10 µM, first compound 0.03 µM
  viability, T/C: 96.9%
Second compound 10 µM, first compound 0.0949 µM
  viability, T/C: 92.2%
Second compound 10 µM, first compound 0.3 µM
  viability, T/C: 87.2%
Second compound 10 µM, first compound 0.949 µM
  viability, T/C: 45.6%
Second compound 10 µM, first compound 3 µM
  viability, T/C: 2.44%

## CC(C)CC(NC(=O)C(Cc1ccccc1)NC(=O)c1cnccn1)B(O)O (stereo not given) + NC1CCC(NC2CC2c2ccccc2)CC1
Second compound 0.1 µM
  IC50: 2.81 nM
Second compound 0.316 µM
  IC50: 2.56 nM
Second compound 1 µM
  IC50: 2.56 nM
Second compound 3.16 µM
  IC50: 2.25 nM
Second compound 10 µM
  IC50: 1.95 nM
Second compound 0.1 µM, first compound 0.000316 µM
  viability, T/C: 122%
Second compound 0.1 µM, first compound 0.001 µM
  viability, T/C: 114%
Second compound 0.1 µM, first compound 0.00316 µM
  viability, T/C: 42.6%
Second compound 0.1 µM, first compound 0.01 µM
  viability, T/C: 2.11%
Second compound 0.1 µM, first compound 0.0316 µM
  viability, T/C: 0.17%
Second compound 0.1 µM, first compound 0.1 µM
  viability, T/C: 0.14%
Second compound 0.316 µM, first compound 0.000316 µM
  viability, T/C: 115%
Second compound 0.316 µM, first compound 0.001 µM
  viability, T/C: 110%
Second compound 0.316 µM, first compound 0.00316 µM
  viability, T/C: 36.6%
Second compound 0.316 µM, first compound 0.01 µM
  viability, T/C: 3.06%
Second compound 0.316 µM, first compound 0.0316 µM
  viability, T/C: 0.46%
Second compound 0.316 µM, first compound 0.1 µM
  viability, T/C: 0.16%
Second compound 1 µM, first compound 0.000316 µM
  viability, T/C: 117%
Second compound 1 µM, first compound 0.001 µM
  viability, T/C: 113%
Second compound 1 µM, first compound 0.00316 µM
  viability, T/C: 35.9%
Second compound 1 µM, first compound 0.01 µM
  viability, T/C: 6.05%
Second compound 1 µM, first compound 0.0316 µM
  viability, T/C: 0.96%
Second compound 1 µM, first compound 0.1 µM
  viability, T/C: 0.23%
Second compound 3.16 µM, first compound 0.000316 µM
  viability, T/C: 106%
Second compound 3.16 µM, first compound 0.001 µM
  viability, T/C: 102%
Second compound 3.16 µM, first compound 0.00316 µM
  viability, T/C: 28.2%
Second compound 3.16 µM, first compound 0.01 µM
  viability, T/C: 5.87%
Second compound 3.16 µM, first compound 0.0316 µM
  viability, T/C: 0.76%
Second compound 3.16 µM, first compound 0.1 µM
  viability, T/C: 0.29%
Second compound 10 µM, first compound 0.000316 µM
  viability, T/C: 92.1%
Second compound 10 µM, first compound 0.001 µM
  viability, T/C: 86.1%
Second compound 10 µM, first compound 0.00316 µM
  viability, T/C: 24%
Second compound 10 µM, first compound 0.01 µM
  viability, T/C: 3.66%
Second compound 10 µM, first compound 0.0316 µM
  viability, T/C: 1.18%
Second compound 10 µM, first compound 0.1 µM
  viability, T/C: 0.23%

Reference: PubChem BioAssay AID1918944 (Molecular Pharmacology Branch, DTP, NCI, 2023)
